The target of experiment [1] is T1, histidine kinase HK853 (Thermotoga maritima, UniProt Q9WZV7).
T1 sequence (Q9WZV7 232-489): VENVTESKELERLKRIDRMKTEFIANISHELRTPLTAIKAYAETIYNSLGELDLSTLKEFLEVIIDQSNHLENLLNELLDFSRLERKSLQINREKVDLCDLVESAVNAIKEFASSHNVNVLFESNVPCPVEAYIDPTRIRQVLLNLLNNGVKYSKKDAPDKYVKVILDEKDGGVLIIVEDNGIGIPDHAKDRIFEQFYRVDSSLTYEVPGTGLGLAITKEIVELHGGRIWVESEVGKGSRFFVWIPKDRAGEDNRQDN
Put plainly: biochemical.
Experimental: (§1) Triton X-100 was premixed with reaction buffer to yield 0.1% (v/v) in final 25-μL reactions. Samples were mixed and incubated in the dark at RT for 1 h before quenching with 8.6 μL 2×SDS-PAGE sample loading buffer and loading 10 μL on a 10%0/stacking gel. After SDS-PAGE, in-gel fluorescence detection elucidated HK853 activity, and silver staining of the gels ensured even protein loading. Integrated density values of the fluorescent gel bands were normalized as “% Activity” with respect to a control that contained no inhibitor. Data were plotted in GraphPad Prism (available from GraphPad Software, San Diego, Calif.) with relation to the log of molar inhibitor to determine IC50 values, using EQUATION 1.

In experiment [2] the target is T1, histidine kinase HK853. The settings on record: for inhibition of HK853: non-native bases or nucleosides, in words.
Experimental: as §1
The next experiment concerns the target T2, HK853 (Thermotoga maritima, UniProt Q9WZV7).
T2 sequence (Q9WZV7 232-489): T1 sequence (Q9WZV7 232-489)
The settings on record: for inhibition of HKs: in words; for IC50 values (95% confidence interval), n = 2: riluzole analogs, second TABLE 3, 0.1% Triton X-100.

The mark [3] stands for this setting: IC50, sulfonyl fluoride side chains, Example 4.
Setting [4] is: purine derivatives, TABLE 2, N/I = no inhibition.
Setting [5] is: IC50, purine derivatives, TABLE 2, N/I = no inhibition.
Where [6] appears, read: phenyl-adenine derivatives, first TABLE 3, N/I = no inhibition.
Setting [7] is: adenine derivatives, TABLE 1, N/I = no inhibition was observed.

Read-outs that look alike come from different tables or passages of the source.

As usually defined, the IC50 is the point on the concentration scale where inhibition reaches its midpoint. Lower therefore signals greater potency. With `Nc1ncnc2c1ncn2C1OC(COC(=O)c2ccccc2)C(O)C1O` (stereo not drawn), the IC50 against histidine kinase HK853 [1] is 192 µM.
In turn, `Nc1ncnc2c1ncn2C1OC(COC(=O)c2ccc(S(=O)(=O)F)cc2)C(O)C1O` (stereo not drawn) [6-O-benzoyl adenosine, R=SO2F] displayed an IC50 at histidine kinase HK853 [1] (setting [3]) of 5.3 µM.
On to `OCC1OC(n2cnc3c(Cl)ncnc32)C(O)C1O` (stereo not drawn) [CW19], for which the half-inhibitory concentration (IC50) result against histidine kinase HK853 [2] (setting [4]) is reported as “N/I”.
As for `Nc1nc(Cl)c2nc[nH]c2n1` [CW20], half-maximal inhibition on histidine kinase HK853 [2] (setting [4]) (IC50) was put at 118 µM.
As to `Nc1nc(Cl)nc2[nH]cnc12` [CW22], on histidine kinase HK853 [2] (setting [4]), the IC50 is 156 µM.
Turning to `Nc1nc(F)nc2[nH]cnc12` [CW24], the IC50 at histidine kinase HK853 [2] (setting [4]) worked out at 310 µM. This IC50 is about 2-fold higher than that of the molecule before.
`Nc1nc(F)nc2c1ncn2C1OC(CO)C(O)C1O` (stereo not drawn) [CW25] gave an IC50 at histidine kinase HK853 [1] (setting [5]) of 218 µM.
The same measure, in the same setting: next, `Cn1cnc2c(N)ncnc21` [CW29]: 150 µM.
On to `Cn1cnc2ncnc(N)c21` [CW30], for which the IC50 result against histidine kinase HK853 [2] (setting [4]) is “N/I”.
Consider `OCC1OC(n2cnc3c(Nc4ccccc4)ncnc32)C(O)C1O` (stereo not drawn) [CW35], for which the IC50 entry at histidine kinase HK853 [2] (setting [6]) was “N/I”.
On to `Clc1nc(Nc2ccccc2)c2nc[nH]c2n1` [CW36], for which, on histidine kinase HK853 [2] (setting [6]), the IC50 entry is “N/I”.
Consider `Clc1ccc(Nc2ncnc3[nH]cnc23)cc1` [CW37], for which the IC50 against histidine kinase HK853 [1] is 1700 µM.
On the same count and under the same terms, next, `Fc1ccc(Nc2ncnc3[nH]cnc23)cc1` [CW38]: 1900 µM.
At histidine kinase HK853 [1], `Nc1ncnc2c1ncn2C1OC(CO)C(O)C1O` (stereo not drawn) [Compound C12] had an IC50 of 445 µM. This IC50 is about 4.3-fold lower than that of the molecule before.
With `Cn1cnc2c(N)ncnc21` [Compound C13], on histidine kinase HK853 [1] (IC50, adenine derivatives, TABLE 1, N/I = no inhibition was observed), the IC50 is 145 µM.
`c1ccc(Nc2ncnc3nc[nH]c23)cc1` [Compound C15] showed an IC50 against histidine kinase HK853 [1] of 7.6 µM.
Consider `OCC1OC(n2cnc3c(Cl)ncnc32)C(O)C1O` (stereo not drawn) [Compound C18], for which the IC50 result against histidine kinase HK853 [2] (setting [7]) is recorded as “N/I”.
Turning to `CCCN(CCC)c1ncnc2c1ncn2C1OC(CO)C(O)C1O` (stereo not drawn) [Compound C19], the IC50 against histidine kinase HK853 [1] worked out at 1100 µM.
For the molecule `Cn1cnc2ncnc(N)c21` [Compound C26], the IC50 result at histidine kinase HK853 [2] (setting [7]) was “N/I”.
`Nc1nc2nc[nH]c2c(=O)[nH]1` [Guanine, reference compound]: the “inhibition of HK853” value against histidine kinase HK853 [2] was “did not appear to inhibit HK853”.
With `Nc1nc2c(ncn2[C@@H]2O[C@H](CO)[C@@H](O)[C@H]2O)c(=O)[nH]1` [Guanosine, reference compound], the “inhibition of HK853” value against histidine kinase HK853 [2] is given as “did not appear to inhibit HK853”.
As to `OC[C@H]1O[C@@H](n2cnc3c(O)ncnc32)[C@H](O)[C@@H]1O` [Inosine, reference compound], the “inhibition of HK853” value at histidine kinase HK853 [2] is listed as “did not appear to inhibit HK853”.
For `Nc1nc2c(Cl)cc(Cl)cc2s1` [Rilu-10], on HK853, the “inhibition of HKs” value is “did not significantly inhibit HKs” and the “IC50 values (95% confidence interval), n = 2” value is “No Inhibition”.
On to `Nc1nc2cc(Br)c(Br)cc2s1` [Rilu-11], for which, on HK853, the “inhibition of HKs” value is recorded as “did not significantly inhibit HKs” and the “IC50 values (95% confidence interval), n = 2” value is “No Inhibition”.
On histidine kinase HK853 [1] (setting [3]), `Nc1nc2ccc(NCc3ccc(S(=O)(=O)F)cc3)cc2s1` [riluzole analog with benzyl SO2F] showed an IC50 of 2.1 µM.
